Laboratory results taken from ChEMBL document CHEMBL2021914, “Inhibition of platelet adhesion by peptidomimetics mimicking the interactive β-hairpin of glycoprotein Ibα” (Bioorg Med Chem Lett, 2012).
Calls of active or inactive are those of the source. The rule behind the calls is not given here. Where a SMILES comes first, the peptide text is derived from it. Bridges are numbered along the chain shown (N, C = ends).

Key:
[1] = molecular target: von Willebrand factor (Homo sapiens) (UniProt P04275); experiment: Inhibition of GPIbalpha-vWF binding assessed as inhibition of ristocetin-induced platelet agglutination at 100 uM after 2 mins by static agglutination assay
Chain of von Willebrand factor (Homo sapiens) (P04275 whole entry): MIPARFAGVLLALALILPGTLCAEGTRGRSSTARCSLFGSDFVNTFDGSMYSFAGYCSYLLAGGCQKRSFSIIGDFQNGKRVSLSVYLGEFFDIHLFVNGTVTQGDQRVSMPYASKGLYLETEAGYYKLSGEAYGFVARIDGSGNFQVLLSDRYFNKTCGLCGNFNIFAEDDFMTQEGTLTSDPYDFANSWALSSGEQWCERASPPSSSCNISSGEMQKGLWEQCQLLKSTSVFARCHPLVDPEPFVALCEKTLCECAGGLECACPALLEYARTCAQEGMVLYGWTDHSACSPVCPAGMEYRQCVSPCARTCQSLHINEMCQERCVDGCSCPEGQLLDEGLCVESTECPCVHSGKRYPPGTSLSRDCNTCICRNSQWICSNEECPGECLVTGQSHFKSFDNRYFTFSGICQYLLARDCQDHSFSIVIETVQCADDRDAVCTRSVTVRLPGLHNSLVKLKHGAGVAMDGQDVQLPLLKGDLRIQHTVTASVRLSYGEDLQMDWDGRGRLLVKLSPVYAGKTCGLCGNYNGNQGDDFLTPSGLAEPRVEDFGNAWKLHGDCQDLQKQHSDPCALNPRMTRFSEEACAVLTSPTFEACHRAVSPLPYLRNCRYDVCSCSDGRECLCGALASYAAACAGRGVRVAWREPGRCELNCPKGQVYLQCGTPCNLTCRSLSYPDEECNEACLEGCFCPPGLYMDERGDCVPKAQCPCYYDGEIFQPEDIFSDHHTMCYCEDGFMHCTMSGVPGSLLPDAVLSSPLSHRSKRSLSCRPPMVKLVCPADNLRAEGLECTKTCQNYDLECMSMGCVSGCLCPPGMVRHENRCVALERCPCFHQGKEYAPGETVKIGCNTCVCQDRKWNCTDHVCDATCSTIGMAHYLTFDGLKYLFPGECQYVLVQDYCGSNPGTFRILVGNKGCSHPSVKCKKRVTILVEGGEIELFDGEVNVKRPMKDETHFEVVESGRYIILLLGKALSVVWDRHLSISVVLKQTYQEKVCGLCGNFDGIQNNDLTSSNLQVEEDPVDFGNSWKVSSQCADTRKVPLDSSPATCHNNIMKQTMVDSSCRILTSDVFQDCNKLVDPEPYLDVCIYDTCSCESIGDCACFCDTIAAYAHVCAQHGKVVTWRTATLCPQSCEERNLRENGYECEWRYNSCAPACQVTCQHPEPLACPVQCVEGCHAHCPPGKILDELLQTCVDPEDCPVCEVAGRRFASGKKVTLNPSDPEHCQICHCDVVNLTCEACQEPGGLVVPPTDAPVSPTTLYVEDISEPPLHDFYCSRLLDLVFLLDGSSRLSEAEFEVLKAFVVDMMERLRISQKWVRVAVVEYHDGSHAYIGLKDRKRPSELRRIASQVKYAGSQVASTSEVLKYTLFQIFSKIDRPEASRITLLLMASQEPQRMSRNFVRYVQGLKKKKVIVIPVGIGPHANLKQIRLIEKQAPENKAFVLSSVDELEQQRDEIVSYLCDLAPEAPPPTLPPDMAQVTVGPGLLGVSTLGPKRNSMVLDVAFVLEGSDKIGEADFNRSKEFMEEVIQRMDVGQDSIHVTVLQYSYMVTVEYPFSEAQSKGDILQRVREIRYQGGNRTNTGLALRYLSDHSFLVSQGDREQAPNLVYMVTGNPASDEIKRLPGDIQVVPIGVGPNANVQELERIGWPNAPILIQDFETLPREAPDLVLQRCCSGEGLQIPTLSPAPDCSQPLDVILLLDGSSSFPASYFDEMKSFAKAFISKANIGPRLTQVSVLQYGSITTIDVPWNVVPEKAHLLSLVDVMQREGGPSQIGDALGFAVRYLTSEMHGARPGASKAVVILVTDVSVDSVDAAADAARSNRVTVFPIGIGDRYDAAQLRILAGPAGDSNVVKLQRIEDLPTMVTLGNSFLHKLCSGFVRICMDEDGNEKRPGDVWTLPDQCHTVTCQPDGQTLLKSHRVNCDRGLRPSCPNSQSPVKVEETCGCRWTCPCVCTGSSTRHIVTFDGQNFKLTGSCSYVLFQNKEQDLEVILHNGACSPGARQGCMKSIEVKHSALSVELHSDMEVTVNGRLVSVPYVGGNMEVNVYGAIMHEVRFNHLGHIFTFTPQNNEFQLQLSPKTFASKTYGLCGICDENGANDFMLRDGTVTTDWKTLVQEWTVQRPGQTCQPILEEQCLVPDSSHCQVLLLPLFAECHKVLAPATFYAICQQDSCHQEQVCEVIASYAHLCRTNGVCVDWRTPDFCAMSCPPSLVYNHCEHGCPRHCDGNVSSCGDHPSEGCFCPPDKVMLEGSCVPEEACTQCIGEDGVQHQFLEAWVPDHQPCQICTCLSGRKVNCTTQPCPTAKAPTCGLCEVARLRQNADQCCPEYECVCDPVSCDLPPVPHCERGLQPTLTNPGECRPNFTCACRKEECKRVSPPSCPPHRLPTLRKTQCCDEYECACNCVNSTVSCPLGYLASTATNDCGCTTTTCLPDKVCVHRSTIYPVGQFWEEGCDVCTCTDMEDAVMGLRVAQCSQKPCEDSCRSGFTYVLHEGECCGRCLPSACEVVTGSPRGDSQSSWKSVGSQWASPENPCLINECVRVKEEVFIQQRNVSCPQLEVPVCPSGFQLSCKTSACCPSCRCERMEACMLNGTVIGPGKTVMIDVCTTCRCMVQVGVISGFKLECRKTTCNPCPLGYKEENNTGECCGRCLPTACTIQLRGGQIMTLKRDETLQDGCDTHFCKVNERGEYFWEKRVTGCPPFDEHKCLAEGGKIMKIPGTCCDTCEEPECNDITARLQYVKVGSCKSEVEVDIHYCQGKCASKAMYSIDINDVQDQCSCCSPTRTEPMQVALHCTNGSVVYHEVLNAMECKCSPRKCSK

[2] = molecular target: von Willebrand factor (Homo sapiens) (UniProt P04275); experiment: Inhibition of GPIbalpha-vWF binding assessed as constant shear stress at 120 dynes/cm'2-induced platelet agglutination at 10 uM preincubated for 5 mins by cone and plate rheometer analysis relative to control using female platelet rich plasma (reference value: 100%); set-up: scale not given: the % may be the effect or the level left
[3] = molecular target: von Willebrand factor (Homo sapiens) (UniProt P04275); experiment: Inhibition of GPIbalpha-vWF binding assessed as ristocetin-induced platelet agglutination at 100 uM after 2 mins by static agglutination assay using washed platelets from male (reference value: 58%); set-up: scale not given: the % may be the effect or the level left
[4] = molecular target: von Willebrand factor (Homo sapiens) (UniProt P04275); experiment: Inhibition of GPIbalpha-vWF binding assessed as constant shear stress at 120 dynes/cm'2-induced platelet agglutination at 10 uM preincubated for 5 mins by cone and plate rheometer analysis relative to control using male platelet rich plasma (reference value: 100%); set-up: scale not given: the % may be the effect or the level left
[5] = molecular target: von Willebrand factor (Homo sapiens) (UniProt P04275); experiment: Inhibition of GPIbalpha-human vWF binding assessed as platelet rolling velocity at 100 uM preincubated for 5 mins by parallel plate flow assay with real time imaging microscopy (reference value: 7.1 um/sec)
[6] = molecular target: von Willebrand factor (Homo sapiens) (UniProt P04275); experiment: Inhibition of GPIbalpha-vWF binding assessed as ristocetin-induced platelet agglutination at 100 uM after 2 mins by static agglutination assay using washed platelets from female (reference value: 61.7%); set-up: scale not given: the % may be the effect or the level left
[7] = molecular target: von Willebrand factor (Homo sapiens) (UniProt P04275); experiment: Inhibition of GPIbalpha-human vWF binding assessed as decrease in arterial shear-induced platelet adhesion to vWF measuring number of platelets adhered after flow at 100 uM preincubated for 5 mins by parallel plate flow assay with real time imaging microscopy
[8] = molecular target: von Willebrand factor (Homo sapiens) (UniProt P04275); experiment: Inhibition of GPIbalpha-human vWF binding assessed as decrease in arterial shear-induced platelet adhesion to vWF measuring number of platelets adhered during flow at 100 uM preincubated for 5 mins by parallel plate flow assay with real time imaging microscopy
[9] = molecular target: von Willebrand factor (Homo sapiens) (UniProt P04275); experiment: Inhibition of GPIbalpha-vWF binding assessed as inhibition of ristocetin-induced platelet agglutination at 100 uM after 2 mins by static agglutination assay using washed platelets from female
[10] = molecular target: von Willebrand factor (Homo sapiens) (UniProt P04275); experiment: Inhibition of GPIbalpha-vWF binding assessed as inhibition of ristocetin-induced platelet agglutination at 100 uM after 2 mins by static agglutination assay using washed platelets from male
[11] = molecular target: von Willebrand factor (Homo sapiens) (UniProt P04275); experiment: Inhibition of GPIbalpha-vWF binding assessed as ristocetin-induced platelet agglutination at 10 uM after 2 mins by static agglutination assay using washed platelets (reference value: 66.5%); set-up: scale not given: the % may be the effect or the level left
[12] = molecular target: von Willebrand factor (Homo sapiens) (UniProt P04275); experiment: Inhibition of GPIbalpha-vWF binding assessed as ristocetin-induced platelet agglutination at 1 uM after 2 mins by static agglutination assay using washed platelets (reference value: 66.5%); set-up: scale not given: the % may be the effect or the level left
[13] = molecular target: von Willebrand factor (Homo sapiens) (UniProt P04275); experiment: Inhibition of GPIbalpha-vWF binding assessed as ristocetin-induced platelet agglutination at 100 uM after 2 mins by static agglutination assay using washed platelets (reference value: 66.5%); set-up: scale not given: the % may be the effect or the level left
[14] = molecular target: von Willebrand factor (Homo sapiens) (UniProt P04275); experiment: Inhibition of GPIbalpha-vWF binding assessed as ristocetin-induced platelet agglutination at 10 uM after 2 mins by static agglutination assay using platelet rich plasma (reference value: 76.3%); set-up: scale not given: the % may be the effect or the level left
[15] = molecular target: von Willebrand factor (Homo sapiens) (UniProt P04275); experiment: Inhibition of GPIbalpha-vWF binding assessed as ristocetin-induced platelet agglutination at 1 uM after 2 mins by static agglutination assay using platelet rich plasma (reference value: 76.3%); set-up: scale not given: the % may be the effect or the level left
[16] = molecular target: von Willebrand factor (Homo sapiens) (UniProt P04275); experiment: Inhibition of GPIbalpha-vWF binding assessed as ristocetin-induced platelet agglutination at 100 uM after 2 mins by static agglutination assay using platelet rich plasma (reference value: 76.3%); set-up: scale not given: the % may be the effect or the level left

Compound	inhibition [1] [%]	Activity [3] [%]	Activity [5] [um/s]	Activity [6] [%]	other results
CC(C)C[C@@H]1NC(=O)[C@H](Cc2cnc[nH]2)NC(=O)[C@H](CO)NC(=O)[C@H](C)NC(=O)[C@H](C(C)C)NC(=O)[C@H](CCCCN)NC(=O)[C@H](CO)NC(=O)[C@H](C(C)C)NC(=O)[C@H](CCC(=O)O)NC(=O)[C@@H](N)CSSC[C@@H](C(=O)N[C@@H](CC(=O)O)C(=O)N[C@@H](CCCCN)C(N)=O)NC(=O)[C@H](CC(N)=O)NC(=O)[C@H](C(C)C)NC(=O)[C@H](CCC(=O)O)NC1=O (H-CEVSKVASHLEVNCDK-NH2; disulfide 1-14)	7.1	–	–	–	–
CC(C)C[C@@H]1NC(=O)[C@H](Cc2cnc[nH]2)NC(=O)[C@H](CO)NC(=O)[C@H](C)NC(=O)[C@H](C(C)C)NC(=O)[C@H](CCCCN)NC(=O)[C@H](CO)NC(=O)[C@H](C(C)C)NC(=O)[C@H](CCC(=O)O)NC(=O)[C@H]2CCCN2C(=O)[C@@H]2CCCN2C(=O)[C@H](CC(N)=O)NC(=O)[C@H](C(C)C)NC(=O)[C@H](CCC(=O)O)NC1=O	10.4	–	–	–	–
CC(C)[C@H](NC(=O)CNC(=O)[C@H](CCC(N)=O)NC(=O)[C@H](CCCCN)NC(=O)[C@H](Cc1c[nH]c2ccccc12)NC(=O)[C@H]1CCCN1C(=O)[C@@H]1CCCN1C(=O)[C@@H](NC(=O)[C@H](C)NC(=O)[C@H](CCCCN)NC(=O)[C@@H](NC(=O)[C@@H](N)CC(=O)O)C(C)C)C(C)C)C(=O)O	–	58.8	5.6	59.7	Activity [2]: 99.7%; Activity [4]: 111%
CC(C)[C@@H]1NC(=O)CNC(=O)[C@@H]2CSSC[C@H](NC(=O)[C@H](C(C)C)NC(=O)[C@H](CC(=O)O)NC1=O)C(=O)N[C@@H](C)C(=O)N[C@@H](C(C)C)C(=O)N[C@@H]([C@@H](C)O)C(=O)N1CCC[C@H]1C(=O)N1CCC[C@@H]1C(=O)N[C@@H](C(C)C)C(=O)N[C@@H](Cc1c[nH]c3ccccc13)C(=O)N[C@@H](CCCCN)C(=O)N2	44.6	–	–	–	–
CC(C)[C@@H]1NC(=O)CNC(=O)[C@H](CCC(N)=O)NC(=O)[C@H](CCCCN)NC(=O)[C@H](Cc2c[nH]c3ccccc23)NC(=O)[C@H](C(C)C)NC(=O)[C@H](Cc2ccc(O)cc2)NC(=O)[C@H](C(C)C)NC(=O)[C@@H]2CCCN2C(=O)CNC(=O)[C@@H]2CCCN2C(=O)[C@H](CC(N)=O)NC(=O)[C@H](CO)NC(=O)[C@H]([C@@H](C)O)NC(=O)[C@H](C(C)C)NC(=O)[C@H](C)NC(=O)[C@H](CCCCN)NC(=O)[C@H](C(C)C)NC(=O)[C@H](CC(=O)O)NC1=O (cyclo(AVTSNPGPVYVWKQGVDVK))	40.5	–	–	–	inhibition [7]: Active; inhibition [8]: Active
CC(=O)N[C@@H](CO)C(=O)N[C@@H](Cc1cnc[nH]1)C(=O)N[C@@H](CC(C)C)C(=O)N[C@@H](CCC(=O)O)C(=O)N[C@H](C(=O)N[C@@H](CC(N)=O)C(=O)N1CCC[C@H]1C(=O)N1CCC[C@@H]1C(=O)N[C@@H](CCC(=O)O)C(=O)N[C@H](C(=O)N[C@@H](CO)C(=O)N[C@@H](CCCCN)C(=O)N[C@H](C(=O)N[C@@H](C)C(=O)O)C(C)C)C(C)C)C(C)C	42.1	–	–	–	–
CC(C)[C@H](NC(=O)CNC(=O)[C@@H]1CSSC[C@H](NC(=O)[C@@H](NC(=O)[C@@H](N)CC(=O)O)C(C)C)C(=O)N[C@@H](C)C(=O)N[C@@H](C(C)C)C(=O)N2CCC[C@H]2C(=O)N2CCC[C@@H]2C(=O)N[C@@H](Cc2c[nH]c3ccccc23)C(=O)N[C@@H](CCCCN)C(=O)N1)C(N)=O	28.5	36	7	57.3	–
H-PGPVYVWKQGVDVKAVTSN-OH	–	–	–	–	inhibition [7]: inactive; inhibition [8]: inactive
CC(C)[C@@H]1NC(=O)CNC(=O)[C@H](CCC(N)=O)NC(=O)[C@H](CCCCN)NC(=O)[C@H](Cc2c[nH]c3ccccc23)NC(=O)[C@H](C(C)C)NC(=O)[C@H]2CCCN2C(=O)[C@@H]2CCCN2C(=O)[C@H]([C@@H](C)O)NC(=O)[C@H](C(C)C)NC(=O)[C@H](C)NC(=O)[C@H](CCCCN)NC(=O)[C@H](C(C)C)NC(=O)[C@H](CC(=O)O)NC1=O	8.9	–	–	–	–
CC(C)[C@@H]1NC(=O)CNC(=O)[C@@H]2CSSC[C@H](NC(=O)[C@H](C(C)C)NC(=O)[C@H](CC(=O)O)NC1=O)C(=O)N[C@@H](C)C(=O)N[C@@H](C(C)C)C(=O)N1CCC[C@H]1C(=O)N1CCC[C@@H]1C(=O)N[C@@H](Cc1c[nH]c3ccccc13)C(=O)N[C@@H](CCCCN)C(=O)N2	43.9	32	8.1	50.7	Activity [2]: 122%; inhibition [9]: 17.8%; inhibition [10]: 44.8%; Activity [11]: 46%; Activity [12]: 57.5%; Activity [13]: 37.3%; Activity [14]: 57.3%; Activity [15]: 61.7%; Activity [4]: 107%; Activity [16]: 46.7%
